Assay results taken from ChEMBL document CHEMBL1154773, “Thiosemicarbazones from the old to new: iron chelators that are more than just ribonucleotide reductase inhibitors” (J Med Chem, 2009).
Values belong to the molecule of their own block, whether it stands above or below them.

Experiments:
SK-N-MC [1] = assay: Antiproliferative activity against human SK-N-MC cells by MTT assay; format: functional, cell-based
[2] = Toxicity in iv dosed CD2F1 hybrid mouse assessed as maximum tolerated dose administered BID at an interval of 6 hrs for 5 days a week over 2 weeks; format: organism-based; settings: in vivo
M109 [3] = assay: Antitumor activity against mouse M109 cells implanted in CD2F1 hybrid mouse assessed as reduction of tumor weight at 0.4 mg/kg, iv administered 4 days after implantation BID for 5 days measured on day 12 after implantation relative to control; format: functional; set-up: scale not given: the % may be the effect or the level left
SK-MEL-28 = assay: Antitumor activity against human SK-MEL-28 cells implanted in nude mouse assessed as reduction in tumor growth at 0.4 mg/kg/day measured up to 7 weeks relative to control; format: functional; set-up: scale not given: the % may be the effect or the level left
SK-N-MC [4] = assay: Iron chelating activity in human SK-N-MC cells assessed as cellular iron efflux at 25 uM after 3 hrs relative to control; format: functional
SK-N-MC [5] = assay: Effect on iron metabolism in human SK-N-MC cells assessed as cellular iron uptake from transferrin at 25 uM after 3 hrs in presence of pronase relative to control; format: functional
SK-N-MC [6] = assay: cells; settings: Homo sapiens, 72 h
Description: Antiproliferative activity against human SK-N-MC cells after 72 hrs by MTT assay

SK-N-MC [7] = assay: Antiproliferative activity against human SK-N-MC cells after 96 hrs by MTT assay; format: functional, cell-based
SK-N-MC [8] = assay: Antiproliferative activity against human SK-N-MC cells; format: functional, cell-based
MRC5 = assay: Antiproliferative activity against human MRC5 cells after 72 hrs by MTT assay; format: cell-based; settings: MRC5, 72 h
CHP-126 = assay: Antitumor activity against human CHP126 cells at 60 uM after 72 hrs; format: functional
[9] = Antitumor activity against human CHP100 cells at 60 uM after 72 hrs; format: functional
Rattus norvegicus = assay: Iron chelating activity in rat assessed as faecal iron excretion at 25 to 100 mg/kg, po administered as single dose relative to basal level; format: functional, Feces; settings: dose mg/kg 25-100
M109 [10] = assay: Antitumor activity against mouse M109 cells implanted in CD2F1 hybrid mouse assessed as reduction of tumor weight at 6 mg/kg, iv administered 4 days after implantation BID for 5 days measured on day 12 after implantation relative to control; format: functional; set-up: scale not given: the % may be the effect or the level left

Compound: CN(C)C(=S)NN=C(c1ccccn1)c1ccccn1
MTD at 2 weeks [2]: 0.4 mg/kg | Activity (M109 [3]): 47% | Activity (SK-MEL-28): 8% | Activity (SK-N-MC [4]): 47% | Activity (SK-N-MC [5]): 9% | IC50 (SK-N-MC [6]): 30 nM

Compound: CC(=O)N(O)CCCCCNC(=O)CCC(=O)N(O)CCCCCNC(=O)CCC(=O)N(O)CCCCCN [DEFEROXAMINE]
Activity (CHP-126): 80% | Activity [9]: 80% | IC50 (SK-N-MC [8]): 22000 nM | IC50 (SK-N-MC [6]): 5000 nM

Compound: Cc1ncc(CO)c(/C=N/NC(=O)c2ccncc2)c1O [PYRIDOXAL ISONICOTINOYL HYDRAZONE]
fold change (FC) (Rattus norvegicus): 8

Compound: NC(=S)N/N=C/c1ncccc1N [TRIAPINE]
MTD at 2 weeks [2]: 6 mg/kg | Activity (M109 [10]): 10%

Second part, led by results:

IC50 (SK-N-MC [1]): 1000 nM
Compound: O=C(N/N=C/c1ccccn1)c1cccs1

IC50 (SK-N-MC [1]): 1000 nM
Compound: O=C(N/N=C(\c1ccccc1)c1ccccn1)c1ccccc1

IC50 (SK-N-MC [7]): 1000 nM | IC50 (SK-N-MC [8]): 300 nM | IC50 (SK-N-MC [6]): 300 nM
Compound: O=C(N/N=C/c1c(O)ccc2ccccc12)c1ccncc1

IC50 (SK-N-MC [6]): 500 nM
Compound: NC(=S)N/N=C/c1c(O)ccc2ccccc12
IC50 (MRC5): > 25000 nM
